Target: T1, Angiotensin II receptor (AT-1) type-1 (Rattus norvegicus, UniProt P29089+P25095)
T1 sequence (P29089 whole entry): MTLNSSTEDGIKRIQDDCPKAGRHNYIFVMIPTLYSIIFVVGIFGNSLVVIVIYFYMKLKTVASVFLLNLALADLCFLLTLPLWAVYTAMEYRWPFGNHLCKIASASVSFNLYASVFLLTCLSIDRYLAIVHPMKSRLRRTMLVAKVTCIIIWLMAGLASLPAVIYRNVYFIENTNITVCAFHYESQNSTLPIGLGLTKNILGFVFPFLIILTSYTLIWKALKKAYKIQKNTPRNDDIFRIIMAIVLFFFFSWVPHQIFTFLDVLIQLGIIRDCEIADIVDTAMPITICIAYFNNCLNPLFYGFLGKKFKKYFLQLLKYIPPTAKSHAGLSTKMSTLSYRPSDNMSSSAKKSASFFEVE
T1 sequence (P25095 whole entry): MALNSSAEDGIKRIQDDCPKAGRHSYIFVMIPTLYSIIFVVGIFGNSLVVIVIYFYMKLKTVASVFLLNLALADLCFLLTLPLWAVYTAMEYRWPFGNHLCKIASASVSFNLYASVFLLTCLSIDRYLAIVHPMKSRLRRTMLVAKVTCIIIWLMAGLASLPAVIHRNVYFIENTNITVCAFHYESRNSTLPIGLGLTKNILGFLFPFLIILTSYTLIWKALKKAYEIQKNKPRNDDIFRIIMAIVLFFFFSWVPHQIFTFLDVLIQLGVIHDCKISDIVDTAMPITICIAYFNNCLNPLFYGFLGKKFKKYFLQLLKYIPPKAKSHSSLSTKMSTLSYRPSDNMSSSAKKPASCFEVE
Test: Inhibitory concentration that gives 50% displacement of specific binding at labeled angiotensin II type 1 receptor in rat adrenal cortical membranes.
Assay type: cell membranes, Membrane

## CCCCc1nc(Cl)c(COC)n1Cc1ccc(NC(=O)Cc2ccccc2CC(=O)O)cc1
  IC50: 2800 nM

## CCCCc1nc(Cl)c(CC(=O)O)n1Cc1ccc(CC(=O)O)cc1
  IC50: 13000 nM

## CCCCc1nc(Cl)c(CC(=O)OC)n1Cc1ccc(NC(=O)c2ccccc2NS(=O)(=O)C(F)(F)F)cc1
  IC50: 500 nM
